EPA's ToxRefDB 2

Experiments:
dog [1] = details: Chronic toxicity, beagle, Oral, Feed, dose end: 12 month, group: systemic
mouse [2] = details: Carcinogenicity, cd1, Oral, Feed, dose end: 78 week, group: systemic
rat [3] = details: Subchronic oral toxicity in rodents, sprague dawley, Feed, dose end: 13 week, group: systemic
rat [4] = details: Combined chronic toxicity/carcinogenicity, other, Oral, Feed, dose end: 24 month, group: systemic
rat [5] = details: Multigenerational reproductive toxicity study, sprague dawley, Oral, Feed, dose end: 2 generation
rat [6] = details: Subchronic oral toxicity in rodents, sprague dawley, Gavage/Intubation, dose end: 90 day, group: systemic
rat [7] = details: Neurotoxicity screening battery; sprague dawley; Oral; Gavage/Intubation; dose end: 13 week; group: cannot be grouped; systemic / in life observation / body weight / body weight gain + systemic / in life observation / clinical signs / red or crusty deposits …
rabbit = details: Subchronic dermal toxicity, new zealand white, Topical, dose end: 90 day, group: systemic, systemic / in life observation / clinical signs / erythema
mouse [8] = details: Combined chronic toxicity/carcinogenicity; other; Oral; Feed; dose end: 24 month; group: systemic; systemic / clinical chemistry / alanine aminotransferase (alt/sgpt) / alanine aminotransferase (alt/sgpt) + systemic / clinical chemistry / …
dog [9] = details: Subchronic oral toxicity in nonrodent, beagle, Feed, dose end: 90 day, group: systemic, systemic / clinical chemistry / alkaline phosphatase (alp/alk) / alkaline phosphatase (alp/alk) + systemic / in life observation / body …
rat [10] = details: Subchronic oral toxicity in rodents, sprague dawley, Feed, dose end: 13 week, group: systemic; remark: listed apart in the source
rat [11] = details: Prenatal developmental toxicity study, other, Oral, Gavage/Intubation, dose end: 15 GD
rat [12] = details: Combined chronic toxicity/carcinogenicity; other; Oral; Feed; dose end: 2 year; group: systemic; systemic / clinical chemistry / alanine aminotransferase (alt/sgpt) / alanine aminotransferase (alt/sgpt) + systemic / clinical chemistry / …
rat [13] = details: Subchronic oral toxicity in rodents, wistar, Feed, dose end: 3 month, group: systemic
dog [14] = details: Chronic toxicity, beagle, Oral, Feed, dose end: 104 week, group: systemic
[15] = systemic / pathology microscopic / liver / pigmentation
[16] = systemic / pathology microscopic / liver / pigmentation + systemic / pathology microscopic / liver / hypertrophy
[17] = systemic / organ weight / liver / absolute + systemic / organ weight / liver / relative to body weight + systemic / pathology microscopic / …
[18] = systemic / pathology microscopic / kidney / mineralization
[19] = systemic / organ weight / liver / relative to body weight
[20] = systemic / organ weight / liver / absolute
[21] = group: offspring, systemic / in life observation / body weight / offspring (pup) weight
[22] = group: parental, systemic / in life observation / body weight / body weight
[23] = systemic / clinical chemistry / fatty acids / non-esterified (free) fatty acids + systemic / clinical chemistry / triglycerides / …
[24] = group: developmental, developmental / developmental malformation / bone / full supernumerary
[25] = group: developmental, developmental / developmental malformation / bone / full supernumerary + developmental / developmental malformation / kidney / dilated renal…
[26] = group: maternal, systemic / in life observation / body weight / body weight gain + systemic / in life observation / clinical signs / alopecia + systemic / in…
[27] = systemic / clinical chemistry / glutamate dehydrogenase / glutamate dehydrogenase
[28] = systemic / clinical chemistry / glutamate dehydrogenase / glutamate dehydrogenase + systemic / clinical chemistry / cholesterol / …
[29] = systemic / clinical chemistry / aminopyrine-n-demethylase / aminopyrine-n-demethylase
[30] = systemic / clinical chemistry / aminopyrine-n-demethylase / aminopyrine-n-demethylase + systemic / clinical chemistry / cytochrome p450, nos…

Compound: CCCCC(CC)CN1C(=O)C2C3C=CC(C3)C2C1=O (stereo unspecified) [MGK-264]
- NEL (dog [1]; [15]): 7.5 mg/kg/day
- NOAEL (dog [1]; [15]): 7.5 mg/kg/day
- LEL (dog [1]; [16]): 33.7 mg/kg/day
- LOAEL (dog [1]; [16]): 33.7 mg/kg/day
- LOAEL (mouse [2]; [17]): 396 mg/kg/day
- NOAEL (mouse [2]; [17]): 49.5 mg/kg/day
- LEL (mouse [2]; [18]): 49.5 mg/kg/day
- NEL (mouse [2]; [18]): < 49.5 mg/kg/day
- LOAEL (rat [3]; systemic / organ weight / liver / absolute + systemic / organ weight / liver / relative to body weight): 260 mg/kg/day
- NOAEL (rat [3]; systemic / organ weight / liver / absolute + systemic / organ weight / liver / relative to body weight + systemic / clinical chemistry / …): 130 mg/kg/day
- LEL (rat [3]; [19]): 140 mg/kg/day
- NEL (rat [3]; [19]): < 140 mg/kg/day
- LEL (rat [4]; [20]): 50 mg/kg/day
- NEL (rat [4]; [20]): < 50 mg/kg/day
- NOAEL (rat [4]; systemic / pathology microscopic / liver / hypertrophy + systemic / pathology microscopic / liver / proliferation + systemic / in life …): 50 mg/kg/day
- LOAEL (rat [4]; systemic / pathology microscopic / liver / hypertrophy + systemic / pathology microscopic / liver / proliferation + systemic / organ weight…): 150 mg/kg/day
- LEL (rat [5]; [21]): 61 mg/kg/day
- LOAEL (rat [5]; [21]): 61 mg/kg/day
- NEL (rat [5]; [21]): < 61 mg/kg/day
- NOAEL (rat [5]; [21]): < 61 mg/kg/day
- LEL (rat [5]; [22]): 61 mg/kg/day
- NEL (rat [5]; [22]): < 61 mg/kg/day

Compound: CN(C)C(=S)[S-].[Na+] [Sodium dimethyldithiocarbamate]
- LOAEL (rat [6]; systemic / clinical chemistry / alkaline phosphatase (alp/alk) / alkaline phosphatase (alp/alk) + systemic / clinical chemistry / glucose / …): 250 mg/kg/day
- LEL (rat [6]; [19]): 0.5 mg/kg/day
- NEL (rat [6]; [19]): < 0.5 mg/kg/day
- NOAEL (rat [6]; systemic / organ weight / liver / relative to body weight + systemic / clinical chemistry / alkaline phosphatase (alp/alk) / alkaline …): 5 mg/kg/day
- LEL (rat [7]): 250 mg/kg/day
- LOAEL (rat [7]): 250 mg/kg/day
- NEL (rat [7]): 5 mg/kg/day
- NOAEL (rat [7]): 5 mg/kg/day
- LEL (rabbit): 50 mg/kg/day
- LOAEL (rabbit): 50 mg/kg/day
- NEL (rabbit): < 50 mg/kg/day
- NOAEL (rabbit): < 50 mg/kg/day

Compound: CC(C)(C)C(O)C(Oc1ccc(Cl)cc1)n1cncn1 (stereo unspecified) [Triadimenol]
- LEL (mouse [8]): 71.4 mg/kg/day
- LOAEL (mouse [8]): 71.4 mg/kg/day
- NEL (mouse [8]): 17.9 mg/kg/day
- NOAEL (mouse [8]): 17.9 mg/kg/day
- LEL (dog [9]): 44.2 mg/kg/day
- LOAEL (dog [9]): 44.2 mg/kg/day
- NEL (dog [9]): < 44.2 mg/kg/day
- NOAEL (dog [9]): < 44.2 mg/kg/day
- LOAEL (rat [10]; [23]): 208 mg/kg/day
- NEL (rat [10]; [23]): 8 mg/kg/day
- NOAEL (rat [10]; [23]): 39.6 mg/kg/day
- LEL (rat [10]; [17]): 39.6 mg/kg/day
- LEL (rat [11]; [24]): 60 mg/kg/day
- LOAEL (rat [11]; [24]): 60 mg/kg/day
- NEL (rat [11]; [25]): 25 mg/kg/day
- NOAEL (rat [11]; [25]): 25 mg/kg/day
- LOAEL (rat [11]; group: maternal, systemic / in life observation / body weight / body weight gain): 15 mg/kg/day
- NEL (rat [11]; [26]): 5 mg/kg/day
- NOAEL (rat [11]; [26]): 5 mg/kg/day
- LEL (rat [11]; group: maternal, systemic / in life observation / body weight / body weight gain + systemic / in life observation / food consumption / food consumption): 15 mg/kg/day
- LEL (rat [12]): 25 mg/kg/day
- LOAEL (rat [12]): 25 mg/kg/day
- NEL (rat [12]): 6.25 mg/kg/day
- NOAEL (rat [12]): 6.25 mg/kg/day
- LEL (rat [13]; [27]): 30 mg/kg/day
- LOAEL (rat [13]; [27]): 30 mg/kg/day
- NEL (rat [13]; [28]): 7.5 mg/kg/day
- NOAEL (rat [13]; [28]): 7.5 mg/kg/day
- LEL (dog [14]; [29]): 211 mg/kg/day
- LOAEL (dog [14]; [29]): 211 mg/kg/day
- NEL (dog [14]; [30]): 56 mg/kg/day
- NOAEL (dog [14]; [30]): 56 mg/kg/day
